In ChEMBL document CHEMBL4028852, “Design of a Chemical Probe for the Bromodomain and Plant Homeodomain Finger-Containing (BRPF) Family of Proteins” (J Med Chem, 2017):
In brackets after ≈: the same amount, converted by molar mass.

Key:
Peregrin = biological target: T1, Peregrin (Homo sapiens, UniProt P55201); test: Inhibition of BRPF1B (unknown origin) binding to histone H3.3 by nonoBRET assay
T1 sequence (P55201 whole entry): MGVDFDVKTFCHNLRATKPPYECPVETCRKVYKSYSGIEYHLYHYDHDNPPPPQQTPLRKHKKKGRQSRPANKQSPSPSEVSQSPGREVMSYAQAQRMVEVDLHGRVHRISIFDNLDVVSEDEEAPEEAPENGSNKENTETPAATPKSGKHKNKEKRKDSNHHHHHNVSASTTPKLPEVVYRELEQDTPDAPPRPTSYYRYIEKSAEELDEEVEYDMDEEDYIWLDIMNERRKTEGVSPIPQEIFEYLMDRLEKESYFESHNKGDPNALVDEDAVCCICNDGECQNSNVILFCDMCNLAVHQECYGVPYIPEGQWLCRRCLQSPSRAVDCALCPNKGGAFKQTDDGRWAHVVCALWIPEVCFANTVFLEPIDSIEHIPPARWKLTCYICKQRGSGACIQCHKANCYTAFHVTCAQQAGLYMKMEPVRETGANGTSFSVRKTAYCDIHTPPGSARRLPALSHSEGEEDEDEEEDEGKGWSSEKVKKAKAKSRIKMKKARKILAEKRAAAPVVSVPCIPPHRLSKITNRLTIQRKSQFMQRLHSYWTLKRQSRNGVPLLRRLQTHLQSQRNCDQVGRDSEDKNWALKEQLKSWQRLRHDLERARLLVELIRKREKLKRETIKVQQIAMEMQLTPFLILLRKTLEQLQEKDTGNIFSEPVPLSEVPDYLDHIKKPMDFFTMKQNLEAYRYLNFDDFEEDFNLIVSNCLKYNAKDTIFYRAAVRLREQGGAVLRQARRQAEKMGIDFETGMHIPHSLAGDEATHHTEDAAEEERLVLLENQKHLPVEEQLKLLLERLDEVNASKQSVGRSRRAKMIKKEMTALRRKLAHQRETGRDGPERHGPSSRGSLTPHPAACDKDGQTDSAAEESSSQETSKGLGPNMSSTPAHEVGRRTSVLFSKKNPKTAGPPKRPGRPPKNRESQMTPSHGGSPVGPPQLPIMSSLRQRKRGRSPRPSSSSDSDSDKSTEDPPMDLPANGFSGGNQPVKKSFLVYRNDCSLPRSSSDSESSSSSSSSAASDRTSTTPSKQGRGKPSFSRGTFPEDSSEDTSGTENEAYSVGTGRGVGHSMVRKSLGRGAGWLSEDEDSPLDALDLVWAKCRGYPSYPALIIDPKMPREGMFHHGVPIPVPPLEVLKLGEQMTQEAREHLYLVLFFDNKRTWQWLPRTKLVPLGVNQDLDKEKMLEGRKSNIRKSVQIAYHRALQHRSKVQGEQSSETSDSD

[1] = biological target: T2, ATPase family AAA domain-containing protein 2 (Homo sapiens, UniProt Q6PL18); test: Inhibition of human ATAD2A (981 to 1108 residues) expressed in Escherichia coli BL21 after 1 hr by BROMOscan assay
T2 sequence (Q6PL18 whole entry): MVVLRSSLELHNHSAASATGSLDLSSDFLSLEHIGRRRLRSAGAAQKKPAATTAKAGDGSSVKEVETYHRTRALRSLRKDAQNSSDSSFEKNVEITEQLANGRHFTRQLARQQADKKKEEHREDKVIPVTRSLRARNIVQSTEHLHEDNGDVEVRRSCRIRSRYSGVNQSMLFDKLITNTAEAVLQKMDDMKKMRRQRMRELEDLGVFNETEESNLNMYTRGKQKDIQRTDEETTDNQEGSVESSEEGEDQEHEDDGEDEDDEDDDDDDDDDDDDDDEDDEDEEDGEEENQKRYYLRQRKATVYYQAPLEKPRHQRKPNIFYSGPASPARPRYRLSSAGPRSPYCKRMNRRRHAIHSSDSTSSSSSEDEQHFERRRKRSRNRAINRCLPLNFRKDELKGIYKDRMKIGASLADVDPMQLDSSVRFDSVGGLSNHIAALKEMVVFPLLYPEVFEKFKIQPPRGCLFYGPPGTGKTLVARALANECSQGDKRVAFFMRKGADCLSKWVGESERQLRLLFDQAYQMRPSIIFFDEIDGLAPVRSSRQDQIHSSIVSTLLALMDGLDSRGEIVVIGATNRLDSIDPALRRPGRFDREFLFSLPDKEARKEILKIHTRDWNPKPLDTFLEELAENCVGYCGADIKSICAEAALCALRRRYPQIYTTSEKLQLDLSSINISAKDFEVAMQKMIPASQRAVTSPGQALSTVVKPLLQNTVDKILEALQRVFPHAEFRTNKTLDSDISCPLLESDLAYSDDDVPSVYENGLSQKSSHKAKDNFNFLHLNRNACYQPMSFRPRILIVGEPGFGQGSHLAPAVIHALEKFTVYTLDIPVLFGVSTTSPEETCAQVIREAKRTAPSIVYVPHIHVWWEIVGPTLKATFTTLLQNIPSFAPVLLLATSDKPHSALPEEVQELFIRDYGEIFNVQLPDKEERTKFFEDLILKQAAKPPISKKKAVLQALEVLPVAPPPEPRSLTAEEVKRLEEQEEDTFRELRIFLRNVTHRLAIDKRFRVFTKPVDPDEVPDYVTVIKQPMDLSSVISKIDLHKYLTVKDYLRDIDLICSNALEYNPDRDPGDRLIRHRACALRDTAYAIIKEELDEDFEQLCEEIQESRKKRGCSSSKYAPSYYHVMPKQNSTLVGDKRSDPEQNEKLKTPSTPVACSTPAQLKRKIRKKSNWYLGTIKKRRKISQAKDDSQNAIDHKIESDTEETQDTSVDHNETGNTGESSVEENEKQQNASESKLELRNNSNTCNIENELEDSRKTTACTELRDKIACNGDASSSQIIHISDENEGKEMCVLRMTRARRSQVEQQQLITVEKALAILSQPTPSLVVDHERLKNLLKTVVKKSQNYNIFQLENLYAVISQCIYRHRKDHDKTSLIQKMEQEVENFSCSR

Cav1.2 = Cav1.2 (Homo sapiens, UniProt Q13936); test: Inhibition of Cav1.2 (unknown origin) at 30 uM
Liver = test: Metabolic stability in mouse liver microsomes by UPLC-MS/MS analysis; assay type: ADME, microsome
[2] = biological target: Bromodomain-containing protein 4 (Homo sapiens, UniProt O60885); test: Inhibition of human BRD4 bromodomain 1 (unknown origin) by Alexa Fluor 647-JQ1 probe-based fluoresence polarization competition assay
[3] = Aqueous solubility of compound; assay type: physicochemical; conditions: buffer

Sequence of Cav1.2 (Q13936 whole entry): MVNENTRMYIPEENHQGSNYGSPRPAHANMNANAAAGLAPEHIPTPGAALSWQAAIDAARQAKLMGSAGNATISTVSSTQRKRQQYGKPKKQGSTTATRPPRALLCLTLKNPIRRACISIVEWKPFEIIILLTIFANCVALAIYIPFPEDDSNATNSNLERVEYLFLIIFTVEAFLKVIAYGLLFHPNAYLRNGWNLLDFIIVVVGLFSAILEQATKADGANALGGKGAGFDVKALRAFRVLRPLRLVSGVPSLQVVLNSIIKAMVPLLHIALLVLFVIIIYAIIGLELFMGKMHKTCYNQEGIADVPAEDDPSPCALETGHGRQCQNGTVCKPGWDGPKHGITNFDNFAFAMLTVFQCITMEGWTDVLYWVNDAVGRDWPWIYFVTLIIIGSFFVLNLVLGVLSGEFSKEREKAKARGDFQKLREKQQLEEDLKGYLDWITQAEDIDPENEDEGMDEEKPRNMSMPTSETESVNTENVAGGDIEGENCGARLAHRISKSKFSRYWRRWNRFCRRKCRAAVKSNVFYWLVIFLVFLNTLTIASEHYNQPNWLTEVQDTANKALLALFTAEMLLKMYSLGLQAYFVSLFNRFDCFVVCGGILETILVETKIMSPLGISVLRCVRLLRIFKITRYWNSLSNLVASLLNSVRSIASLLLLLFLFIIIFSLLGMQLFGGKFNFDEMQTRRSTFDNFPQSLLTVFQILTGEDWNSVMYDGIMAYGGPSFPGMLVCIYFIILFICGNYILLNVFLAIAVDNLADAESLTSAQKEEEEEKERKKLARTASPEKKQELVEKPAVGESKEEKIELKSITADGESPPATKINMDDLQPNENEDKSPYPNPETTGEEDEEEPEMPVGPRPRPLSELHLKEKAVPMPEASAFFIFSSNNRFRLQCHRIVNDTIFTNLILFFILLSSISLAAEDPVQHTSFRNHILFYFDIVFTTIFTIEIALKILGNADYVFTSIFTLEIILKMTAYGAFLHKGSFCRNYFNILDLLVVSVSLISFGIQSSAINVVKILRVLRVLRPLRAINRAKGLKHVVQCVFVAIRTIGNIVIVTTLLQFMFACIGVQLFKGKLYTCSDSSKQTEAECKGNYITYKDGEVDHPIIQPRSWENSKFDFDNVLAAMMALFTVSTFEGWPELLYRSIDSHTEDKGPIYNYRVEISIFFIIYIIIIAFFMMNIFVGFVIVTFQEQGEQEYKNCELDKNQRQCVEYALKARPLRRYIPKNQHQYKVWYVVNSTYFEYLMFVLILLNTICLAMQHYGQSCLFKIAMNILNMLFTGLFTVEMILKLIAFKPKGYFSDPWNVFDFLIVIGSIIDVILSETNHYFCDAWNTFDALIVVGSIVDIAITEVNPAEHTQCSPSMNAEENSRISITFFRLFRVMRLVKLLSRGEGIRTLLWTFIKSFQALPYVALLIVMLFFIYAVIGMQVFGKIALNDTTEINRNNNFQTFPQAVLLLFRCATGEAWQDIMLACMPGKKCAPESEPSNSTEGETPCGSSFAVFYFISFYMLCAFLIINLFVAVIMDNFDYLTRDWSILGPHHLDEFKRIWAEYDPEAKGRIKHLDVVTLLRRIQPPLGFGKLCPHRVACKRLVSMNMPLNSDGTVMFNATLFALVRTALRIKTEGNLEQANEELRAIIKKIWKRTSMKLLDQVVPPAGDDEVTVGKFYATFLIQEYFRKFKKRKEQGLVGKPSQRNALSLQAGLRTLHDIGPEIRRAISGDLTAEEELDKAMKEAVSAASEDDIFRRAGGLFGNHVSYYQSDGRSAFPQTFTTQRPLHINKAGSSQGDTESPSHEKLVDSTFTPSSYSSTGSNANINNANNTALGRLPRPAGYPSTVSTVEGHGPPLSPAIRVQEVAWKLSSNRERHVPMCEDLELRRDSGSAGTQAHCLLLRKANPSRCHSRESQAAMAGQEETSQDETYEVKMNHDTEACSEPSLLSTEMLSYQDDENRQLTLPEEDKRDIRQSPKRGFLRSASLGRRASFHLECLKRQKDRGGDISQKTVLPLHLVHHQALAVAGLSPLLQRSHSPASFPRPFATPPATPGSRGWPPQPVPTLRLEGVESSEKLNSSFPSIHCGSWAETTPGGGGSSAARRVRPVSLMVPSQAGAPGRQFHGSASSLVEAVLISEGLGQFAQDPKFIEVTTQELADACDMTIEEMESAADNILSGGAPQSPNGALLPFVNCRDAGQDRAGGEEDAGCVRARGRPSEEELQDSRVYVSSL

COc1cc(C#N)ccc1S(=O)(=O)Nc1ccc2c(c1)cc(C)c(=O)n2C
IC50 (Peregrin): 0.07 µM
IC50 [1]: > 100 µM
inhibition at 30 µM (Cav1.2): < 40%
Stability (Liver): Stable
IC50 [2]: > 33 µM
solubility [3]: 100 µM (≈ 38.3 µg/mL)
